The numbers were not newly measured in patent US7795435B2, “Process for obtaining the polymorphic form I of finasteride” (Ragactives, S.L., priority 2002, dated 2010), which cites them from elsewhere.

SMILES strings stand for the structures.

The conditions of the data set: 25° C., according to EP 0 599 376 B1.

For `CC(C)(C)NC(=O)[C@H]1CC[C@H]2[C@@H]3CC[C@H]4NC(=O)C=C[C@]4(C)[C@H]3CC[C@]12C` [Form I of finasteride], the solubility in cyclohexane was 0.27 ± 0.05 mg/g and the solubility in water is 0.05 ± 0.02 mg/g.
As for `CC(C)(C)NC(=O)[C@H]1CC[C@H]2[C@@H]3CC[C@H]4NC(=O)C=C[C@]4(C)[C@H]3CC[C@]12C` [Form II of finasteride], the solubility in cyclohexane is 0.42 ± 0.05 mg/g and the solubility in water is 0.16 ± 0.02 mg/g.
